# Values of other authors in patent EP3338772A1, “[…] COMPOSITIONS STABILIZED BY HYDROXYCARBOXYLIC ACIDS , THE PRODUCTION THEREOF AND HIGHLY CONCENTRATED MAGNESIUM COMPOSITIONS” (Merz Pharma GmbH & Co. KGaA, priority 2016, dated 2018).
# Where two headings read alike, the source gives them in different places.
# Key:
# [1] = water
substance,measurement,setting,value
Calcium-Magnesium-Lactat-Citrat-Komplex,"Löslichkeit in Wasser, Calcium",[1],900 mg/L
same,"Löslichkeit in Wasser, Magnesium",[1],300 mg/L
Trimagnesiumdicitrat*Nonahydrat (C12H10O14Mg3*9H2O),Löslichkeit,25 °C,"18,14 g(Mg^2+)kg^-1H2O"
Trimagnesiumdicitrat*Tetradecanhydrat (C12H10O14Mg3*14H2O),Löslichkeit,22 °C,"19,40 g(Mg^2+)kg^-1H2O"
same,maximale Magnesium-Konzentration,"Raumtemperatur, without hydroxycarboxylic acid","19,40 g(Mg^2+) kg^-1 (Wasser)"
